Data published in ChEMBL document CHEMBL1153677, “A novel series of 2-aminotetralins with high affinity and selectivity for the dopamine D3 receptor” (Bioorg Med Chem Lett, 1997).

What was measured:
D(2) dopamine receptor = D(2) dopamine receptor (Homo sapiens, UniProt P14416); assay: Displacement of [125I]iodosulpiride from human Dopamine receptor D2 expressed in CHO cells; format: cell-based
D(3) dopamine receptor = D(3) dopamine receptor (Homo sapiens, UniProt P35462); assay: Displacement of [125I]iodosulpiride from human Dopamine receptor D3 expressed in CHO cells; format: cell-based
[1] = biological target: T1, 5-hydroxytryptamine receptor 1A (Mus musculus, UniProt Q64264); assay: Ability to displace [125I]iodosulpiride from 5-hydroxytryptamine 1A receptor
T1 sequence (Q64264 whole entry): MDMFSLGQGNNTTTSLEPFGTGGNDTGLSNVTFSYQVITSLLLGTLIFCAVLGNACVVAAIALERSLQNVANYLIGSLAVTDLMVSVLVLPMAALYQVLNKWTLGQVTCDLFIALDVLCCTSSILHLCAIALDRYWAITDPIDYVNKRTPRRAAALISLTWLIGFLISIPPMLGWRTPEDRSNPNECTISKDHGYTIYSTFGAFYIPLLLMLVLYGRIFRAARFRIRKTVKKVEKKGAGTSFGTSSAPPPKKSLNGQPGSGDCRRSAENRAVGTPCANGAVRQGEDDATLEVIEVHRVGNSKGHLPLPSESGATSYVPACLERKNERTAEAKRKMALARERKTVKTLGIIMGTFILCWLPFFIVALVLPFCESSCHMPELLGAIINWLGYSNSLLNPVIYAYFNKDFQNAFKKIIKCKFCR

Sequence of D(2) dopamine receptor (P14416 whole entry): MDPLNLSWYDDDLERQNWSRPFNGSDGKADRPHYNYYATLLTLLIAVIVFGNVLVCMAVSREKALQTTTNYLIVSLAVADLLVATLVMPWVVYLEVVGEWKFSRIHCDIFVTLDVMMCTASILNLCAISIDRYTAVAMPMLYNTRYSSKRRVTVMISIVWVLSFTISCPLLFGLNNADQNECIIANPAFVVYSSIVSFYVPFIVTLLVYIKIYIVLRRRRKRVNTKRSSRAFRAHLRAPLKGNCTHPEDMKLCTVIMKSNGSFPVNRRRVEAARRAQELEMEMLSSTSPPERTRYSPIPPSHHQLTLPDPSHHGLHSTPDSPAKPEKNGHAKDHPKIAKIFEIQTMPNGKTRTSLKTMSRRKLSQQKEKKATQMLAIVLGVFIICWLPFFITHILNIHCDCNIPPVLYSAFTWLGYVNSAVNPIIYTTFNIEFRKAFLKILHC
Sequence of D(3) dopamine receptor (P35462 whole entry): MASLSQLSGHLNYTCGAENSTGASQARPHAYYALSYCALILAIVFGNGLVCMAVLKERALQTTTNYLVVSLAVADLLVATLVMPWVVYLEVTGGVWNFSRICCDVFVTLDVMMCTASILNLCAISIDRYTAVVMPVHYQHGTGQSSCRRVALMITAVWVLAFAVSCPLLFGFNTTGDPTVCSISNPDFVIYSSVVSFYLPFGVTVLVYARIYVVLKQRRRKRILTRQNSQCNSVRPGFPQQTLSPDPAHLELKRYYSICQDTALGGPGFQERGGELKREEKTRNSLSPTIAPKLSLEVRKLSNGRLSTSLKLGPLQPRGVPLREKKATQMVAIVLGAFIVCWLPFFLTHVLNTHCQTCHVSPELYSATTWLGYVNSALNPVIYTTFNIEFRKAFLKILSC

Compound	Ki (D(2) dopamine receptor) [nM]	Ki (D(3) dopamine receptor) [nM]	Ki [1] [nM]
COc1ccccc1N1CCN(CCCCNC(=O)c2ccc(-c3ccc(C(C)=O)cc3)cc2)CC1	–	–	3.16
CN(CCCCNC(=O)c1ccc(-c2ccccc2)cc1)C1CCc2c(O)cccc2C1 (stereo not given)	126	2.51	–
CCCN(CCCCNC(=O)c1ccc(-c2ccccc2)cc1)C1CCc2c(cccc2OS(=O)(=O)C(F)(F)F)C1 (stereo not given)	398	1.58	–
CCCN(CCCCNC(=O)c1ccc(-c2ccccc2)cc1)C1CCc2ccccc2C1 (stereo not given)	316	1.58	–
CCCN(CCCCNC(=O)c1ccc(-c2ccccc2)cc1)C1CCc2c(cccc2OCC2CC2)C1 (stereo not given)	794	2.51	–
CCCN(CCCCNC(=O)c1ccc(-c2ccccc2)cc1)C1CCc2c(O)cccc2C1 (stereo not given)	25.1	0.2	–
COc1cccc2c1CCC(N(C)CCCCNC(=O)c1ccc(-c3ccccc3)cc1)C2 (stereo not given)	316	12.6	–
CCCN(CCCCNC(=O)c1ccc(-c2ccccc2)cc1)C1CCc2c(cccc2OS(C)(=O)=O)C1 (stereo not given)	251	1.26	–

The remaining lines, values ahead:

Ki (D(2) dopamine receptor) [nM]	Ki (D(3) dopamine receptor) [nM]	Ki [1] [nM]	Compound
100	0.501	–	CCCN(CCCCNC(=O)c1ccc(-c2ccccc2)cc1)C1CCc2c(C#N)cccc2C1 (stereo not given)
631	3.98	–	CCCN(CCCCNC(=O)c1ccc(-c2ccccc2)cc1)C1CCc2c(cccc2C(N)=O)C1 (stereo not given)
398	1.58	–	CCCN(CCCCNC(=O)c1ccc(-c2ccccc2)cc1)C1CCc2c(Cl)cccc2C1 (stereo not given)
251	1.26	–	CCCN(CCCCNC(=O)c1ccc(-c2ccccc2)cc1)C1CCc2c(Br)cccc2C1 (stereo not given)
126	0.794	–	CCCN(CCCCNC(=O)c1ccc(-c2ccccc2)cc1)C1CCc2c(cccc2OC)C1 (stereo not given)
